# Results reported in publication PMC11225352, “A multicenter, randomized, double-blind, placebo-controlled ascending dose study to evaluate the safety, tolerability, pharmacokinetics (PK) and pharmacodynamic (PD) effects of Posiphen in subjects with early Alzheimer’s Disease” (Alzheimer's Research & Therapy, 2024).
# How the values were obtained:
# APP = test: Post hoc comprehensive compartmental modeling of APP production rate from SILK data; type: in vivo, human
# Protocol: For SILK, the fraction of labeled Aβ for Aβ38, 40, and 42 during 36 h after administration of study drug for each subject was calculated, as described. The FSR measures were calculated by fitting a line to the upslope of the CSF Aβ labeling data. It was assumed that the upslope occurred between hours 6–16 h after the start of confinement. FSR for treated and untreated subjects were compared by analysis of variance (ANOVA). The percentage of newly synthesized and degraded Aβ was estimated over 36 h by multiplying the […] concentration of Aβ measured at the start of confinement (i.e. at catheter placement; time = 0) by the percentage of Aβ that contains ^13C6-leucine at each time point. This can be used to estimate the AUC of the drug for decreasing the amount of newly produced Aβ [24]. As a post hoc analysis, the FSR measurement was also performed with different assumptions: the timeframe for measuring the upslope was automatically detected based on the slope of the SILK curve (see supplementary materials for method and code). As an additional post hoc analysis, a newer model for SILK that take into count the multiple compartments and CSF and other spaces involved in APP metabolism was also used to estimate APP production rates, as described below.
# APP and Aβ production and clearance rates were determined using a recently described comprehensive model. The model accounts for the bi-hourly withdrawal of 6 mL of CSF, which is known to alter the lumbar CSF concentration of Aβ [25]. The model estimates rates of APP production, enzymatic production of Aβ, transport of Aβ from interstitial fluid (ISF) to CSF, enzymatic degradation of Aβ, blood-brain barrier transport of Aβ, as well as CSF mixing throughout the subarachnoid space (SAS) and clearance of CSF from cranial and spinal subarachnoid space (SAS). For the DISCOVER trial, MRI volumetric scans were not available, so CSF volumes (cranial, cisternal and ventricular) were estimated based on the subject’s age using data from the previous study (see Supplementary Materials). […]
# cholinesterase = system: cholinesterase; set-up: method as in PMID 11404470; settings: cited from earlier work
# Aβ40 = test: CSF Aβ40 level, screening to day 21 (MSD immunoassay); type: in vivo, human; settings: ANOVA with age and sex as covariates; p = 0.39
# Protocol: (§1) For biochemical analysis to derive data for SILK, ^13C6-leucine was analyzed in plasma and CSF by mass spectrometry, and Aβ peptides in CSF were analyzed by immunoprecipitation-mass spectrometry (IP-MS) as previously described, by C2N Diagnostics (St Louis, MO). CSF levels of sAPPα, sAPPβ, Aβ38, 40 and 42 were analyzed by the ADCS Biomarker Core using Mesoscale Discovery (MSD) electrochemiluminescent assays (Mesoscale Discovery, Rockville, MD). Levels of Posiphen and its N1 and N8 metabolites in plasma and CSF were measured by Charles River Laboratories (Montreal, CA) by high-performance liquid chromatographic mass spectrometry, with use of deuterated Posiphen (procured by Charles River Laboratories) as an internal standard.
# (§2) Changes in CSF biomarkers from the screening to confinement (sample at time of placement of catheter) were compared in the treatment and placebo groups by ANOVA, with models that included age, sex and baseline MMSE, and further analysis stratified by treatment dose. A similar approach was taken to analyze changes in MMSE, ADAS-cog and NPI. Data were analyzed using R (version 4.2.2).
# sAPPα = test: CSF sAPPα level, screening to day 21 (MSD immunoassay); type: in vivo, human; settings: ANOVA with age and sex as covariates; p = 0.38
# Protocol: as §1, §2
# [1] = system: sAPPα, sAPPβ and total tau; set-up: method as in PMID 22791904; settings: four MCI subjects, 60 mg four times per day for 10 days; cited from earlier work
# Total tau = test: CSF total tau level, screening to day 21; type: in vivo, human
# Protocol: as §2
smiles,measurement,setting,value
CN1CC[C@]2(C)c3cc(OC(=O)Nc4ccccc4)ccc3N(C)[C@H]12 [Posiphen],"APP production, placebo vs 120 mg per day group",APP; model with pre-drug lumbar CSF concentration as covariate,showed significance
same,APP production rate,APP; single 180 mg per day subject,low
same,APP production rates,"APP; subjects receiving 120 or 180 mg per day, differences not significant by non-parametric analysis",trended lower
same,anticholinesterase activity,cholinesterase,does not
same,"CSF Aβ40, Treatment difference (Posiphen – placebo)",Aβ40,-1.4 (1.57) p = 0.39 pg/mL
same,"CSF sAPPα, Treatment difference (Posiphen – placebo)",sAPPα,9.99 (10.8) p = 0.38 pg/mL
same,"mean CSF sAPPα, sAPPβ and total tau at 10 days compared to pretreatment",[1],decreased
same,"CSF Total tau, Treatment difference (Posiphen – placebo)","Total tau; ANOVA with age and sex as covariates, p = 0.39",133 (149) p = 0.39 pg/mL
same,"CSF Total tau, Day 21","Total tau; Posiphen arm, all doses (n = 10), screening 751 ± 404 (n = 11)",849 ± 369 (n = 10) pg/mL
same,"CSF Total tau, LS mean change","Total tau; screening to day 21, SEM 79.1, placebo 53.7",186.4 pg/mL
